Reference: patent US20050130203A1, “Novel GABAB receptor DNA sequences” (Board of Regents, The University of Texas System, priority 1998, published 2005)

Columns and labels:
[1] = target: T1, HG20 (Homo sapiens, UniProt O75899)
[2] = target: T1, HG20; remark: listed apart in the source

T1 sequence (O75899 52-941): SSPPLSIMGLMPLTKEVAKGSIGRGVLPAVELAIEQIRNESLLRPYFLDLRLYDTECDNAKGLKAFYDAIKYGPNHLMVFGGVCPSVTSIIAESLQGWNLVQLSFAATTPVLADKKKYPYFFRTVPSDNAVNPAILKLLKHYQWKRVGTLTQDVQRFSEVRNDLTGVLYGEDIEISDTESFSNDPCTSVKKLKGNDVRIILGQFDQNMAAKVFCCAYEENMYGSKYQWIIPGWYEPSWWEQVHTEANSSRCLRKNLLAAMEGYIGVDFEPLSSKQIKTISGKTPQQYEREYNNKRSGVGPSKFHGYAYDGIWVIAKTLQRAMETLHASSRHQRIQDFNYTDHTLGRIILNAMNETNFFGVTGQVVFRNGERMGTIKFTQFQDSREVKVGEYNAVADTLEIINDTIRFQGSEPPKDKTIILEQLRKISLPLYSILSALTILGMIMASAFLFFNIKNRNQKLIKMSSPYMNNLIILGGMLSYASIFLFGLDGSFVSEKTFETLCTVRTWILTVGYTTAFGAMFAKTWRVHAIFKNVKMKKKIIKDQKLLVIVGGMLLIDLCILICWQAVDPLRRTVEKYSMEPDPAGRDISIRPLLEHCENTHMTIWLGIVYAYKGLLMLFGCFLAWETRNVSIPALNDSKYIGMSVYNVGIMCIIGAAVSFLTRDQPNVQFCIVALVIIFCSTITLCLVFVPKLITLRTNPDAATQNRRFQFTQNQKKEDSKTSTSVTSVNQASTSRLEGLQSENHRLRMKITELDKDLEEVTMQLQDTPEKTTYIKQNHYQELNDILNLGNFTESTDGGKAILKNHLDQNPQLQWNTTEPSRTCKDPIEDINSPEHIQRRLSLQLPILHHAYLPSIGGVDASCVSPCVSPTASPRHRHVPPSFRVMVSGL

| Molecule | pigment aggregation or dispersion response [1] | activity in Xenopus melanophore functional assay [1] | activity in Xenopus oocyte functional assay [2] |
| --- | --- | --- | --- |
| O=S(=O)(O)C1CCNCC1 [piperidine-4-sulfonic acid] | no pigment aggregation or dispersion response | – | – |
| NC/C=C\C(=O)O [cis-4-aminocrotonic acid] | no pigment aggregation or dispersion response | – | – |
| N[C@@H](CCC(=O)O)C(=O)O [L-Glutamate, (L)-glutamic acid] | no pigment aggregation or dispersion response | no activity | no activity |
| (−)Baclofen | no pigment aggregation or dispersion response | no activity | no activity |
